Experimental data: paper PMC8280143, “A novel dephosphorylation targeting chimera selectively promoting tau removal in tauopathies” (Signal Transduction and Targeted Therapy, 2021)
“Also recorded” adds a separate entry of the source.

Tests used:
[1] = test system: dentate granular cells of Tau368 mice; test: Sparse labeling: dendritic spine density and mossy fiber puncta area; format: in vivo, mouse
Protocol: (§1) For 2-month male C57BL/6 mice, 10 mM FITC-labeled or unlabeled-DEPTAC were directly injected through the tail vein or lateral ventricle for the evaluation of BBB-penetrability. For 9-month 3×Tg AD mice or Tau368 (20–30 g body weight), unlabeled-DEPTAC (5 mM, 1 μL for each time) was delivered for once into the lateral ventricle through direct stereotaxic injection, or repeatedly administrated through guiding cannulas (RWD, Shenzhen, China) implanted into the lateral ventricle once every 3 days for a consecutive month to test its dephosphorylation efficiency. Mice were restricted in a custom designed device and stayed awake during drug administration, and sacrificed at 24 h post the single or last DEPTAC administration.
A total volume of 0.3 μL mixture of AAV-CaMKIIα-Cre (5.21E+07) and AAV-EF1α-DIO-mCherry (3.24E+12) (1:1 vol/vol) was stereotaxically injected into the dDG of Tau368 mice 1 month following the beginning of dox or normal drinking water administration. Dox was stopped 1-month post AAVs injection, and DEPTAC were delivered through lateral ventricle for a consecutive month. Behavioral tests were performed after the DEPTAC administration, and mice were killed after behavioral tests. Hippocampal sections of 60 μm were obtained, and fluorescent images were taken by a two-photon laser-scanning confocal microscope (LSM710, Zeiss). The dendrite complexity of granular cells in the dorsal dentate gyrus was evaluated by Sholl analysis using Simple Neurite Tracer plugin and ImageJ (Fiji) software. Dendrite spine density and the averaged area of mossy fiber punctas were evaluated using ImageJ by an experimenter blinded from mice groupings. It should be noted that the fluorescence-labeled mossy fibers assembled densely in the CA3 subset, the main target area of mossy fiber axon terminals, making it difficult to accurately measure the puncta areas (data not shown). Therefore, we chose the hilus of DG subset for the measurement, which we believe should be also valid to indicate the axon plasticity of DG granular cells.

[2] = test system: human tau N-terminal 1–368 fragment (hTau-N368); test: Hippocampal phosphorylated and total tau in dox-treated Tau368 mice; format: in vivo, mouse
Protocol: Mice weighting 20–30 g were anesthetized with 1% pentobarbital sodium (35 mg/kg), and fixed in a stereotaxic instrument (RWD). The scalp was sterilized with iodophors and 75% ethanol, and incised along the skull midline. Holes were drilled. Adeno-associated virus or DEPTAC was injected into the dorsal DG (posterior 1.9 mm, lateral ±1.1 mm from the bregma, ventral −2.0 from the skull) or lateral ventricle (posterior 0.22 mm, lateral ±1.0 mm from the bregma, ventral −2.5 from the skull), respectively, using an automatic microinjection system (World Precision Instruments, USA) at a rate of 0.05 μL/min. The needle syringe was left in place for 5 min before withdrawal. The skin was sutured and sterilized with iodophors. Mice were placed on thermos tank for analepsia.
as §1
Cultured cells or hippocampus tissues were collected on ice, and homogenized with RIPA lysis buffer containing 50 mM Tris-HCl, 100 mM NaCl, 1% Triton X-100, 5 mM EDTA, and 1:100 PMSF, and then centrifuged at 12,000 × g for 20 min. The supernatant was collected for the analysis of soluble proteins. In some experiments, the pellets were further incubated with 8% SDS buffer at 37 °C and then ultrasound for 60 times to reach a complete resuspension for the analysis of insoluble tau. Protein concentration was measured through BCA assays (Thermo Fisher). Equal amount of protein from each sample were separated in SDS-PAGE gels, and then transferred onto nitrocellulose or 0.22 μm polyvinylidene fluoride membranes (Merck Millipore). The membranes were blocked with 5% BSA, and incubated in turn with primary and horseradish peroxidase-conjugated secondary antibodies: pS199-Tau (44734G, Invitrogen, 1:2000), pT205-Tau (11108-1, Signalway, 1:2000), pS396-Tau (11102, Signalway, 1:2000), pS404-Tau (11112, Signalway, 1:2000), AT8 (MN1020, Thermo Fisher, 1:1000), Tau5 (ab80579, Abcam, 1:1000), Tau46 (T9450, Sigma, 1:1000), PP2A-Bα (4953, Cell signaling, 1:1000), Phospho-Ser/Thr (ab17464, Abcam1:1000), Ubiquitin (ab7254, Abcam, 1:1000), MAP2 (AB5622, Millipore, 1:2000), hTau-N368 (a generous gift from Prof. Keqiang Ye, Emory University School of Medicine, 1:1000), DEPTAC (developed by Daian Biotechnology, Wuhan, China, 1:500), β-actin (ab6276, Abcam, 1:2000). HRP-conjugated goat anti-rabbit IgG (A0208, Beyotime, 1:3000), HRP-conjugated goat anti-mouse IgG (A0216, Beyotime, 1:3000). Blots were visualized using ECL luminol reagent (P0018FS, Beyotime), and quantified using ImageJ software.

[3] = test system: PP2A-Bα (PPP2R1A); test: Fluorescence polarization competing assay, PP2A-Bα; format: binding, human; details: 2.5 μM PP2A-Bα, 0.1 μM FITC-labeled DEPTAC; 37 °C, 30 min
Protocol: Purified human tau and PP2A-Bα (PPP2R1A) were obtained from AtaGenix (Wuhan, China), and concentrated using ultrafiltration tubes (Beyotime). In basic binding assays, tau or PP2A-Bα was aliquoted into serial dilutions with a buffer containing 20 mM Tris-HCl, 150 mM NaCl, and 0.5 mM 1,4-Dithiothreitol (pH 7.4), and incubated with 0.1 μM FITC-labeled DEPTAC, FITC-labeled control peptide and FITC (9:1 vol/vol), respectively, in a black 384-well plates (Corning) under 37 °C for 30 min. In competition binding assays, a mixture of 2.5 μM tau or PP2A-Bα and 0.1 μM FITC-labeled DEPTAC were incubated with increasing amounts of unlabeled-DEPTAC under 37 °C for 30 min. Fluorescence intensity was measured by a Biotek Synergy 2 microplate reader with the wavelengths of 480 nm (60) (Ex)/560 nm (40) (Em). The polarization measurements were corrected for background contributions to the measured intensity by subtracting the parallel and perpendicular intensity readings by the vehicle-only wells from the intensity readings for each data point. Fluorescence polarization (P) was calculated by the formula P = (I║ − I┴) / (I║ + I┴), where I║ was the intensity of emitted light polarized parallel to the excitation light, and I┴ was the intensity of emitted light polarized perpendicular to the excitation light.

[4] = Tau368 mice without dox, n = 3 mice
[5] = dox-treated Tau368 mice, DEPTAC 1 month after stopping dox, *p < 0.05, n = 5 mice
[6] = DEPTAC for a consecutive month after stopping dox, **p < 0.01, n = 3 mice
[7] = dox kept on, DEPTAC i.c.v. by guiding cannula once every three days for a consecutive month, 10 μg total protein, *p < 0.05, n = 3–4
[8] = hippocampus of Tau368 mice, 24 h of post-DEPTAC administration

(1) YQQYQDATADEQG, originates from the porcine β-tubulin 422–434 for recognizing and binding tau proteins.[5],[6] (2) GSGS, a linker for increasing the flexibility of the peptide.[15] (3) KKVAVVRTPPKSP, for recruiting PP2A-Bα,[16] and (4) RRRRRRRR [DEPTAC, DEPhosphorylation TArgeting Chimera; 38 amino acid residues, C185H314N72O56]
averaged mossy fiber puncta area, without dox [1, 4]: only limited effects
dendritic spine density, without dox [1, 4]: only limited effects
averaged area of mossy fiber puncta [1, 5]: increased; also recorded: enlarged
mushroom-like dendritic spine density [1, 5]: significantly increased
total dendritic spine density [1, 5]: significantly increased
hippocampal phospho-tau after stopping the dox [2, 6]: reduced; also recorded: downregulated
hippocampal total tau after stopping the dox [2, 6]: reduced; also recorded: downregulated
degree of tau reduction by DEPTAC ([2]; discussion, compared with tau knock-out or siRNA knock-down): far less than tau knock-out or siRNA-mediated knock-down
hippocampal phospho-tau, dox kept on [2, 7]: significantly reduced; also recorded: effectively facilitated the dephosphorylation
hippocampal total tau, dox kept on [2, 7]: significantly reduced; also recorded: effectively facilitated the dephosphorylation as well as the degradation of tau
hippocampal phosphorylated tau ([2]; dox-treated Tau368 mice, 5 mM, i.c.v., for a consecutive month / for once, 12–72 h post injection, n = 3–4): effective in reducing; also recorded: reduced phosphorylated and total tau prominently
RIPA lysis buffer-insoluble tau [2, 8]: tend to be decreased
RIPA lysis buffer-soluble tau [2, 8]: tend to be decreased
reversal of FITC-DEPTAC/PP2A-Bα polarization by increased amount of unlabeled-DEPTAC [3]: both were reversed
